Structure (SMILES) | melting point
Cn1c(COc2ccc(CC3SC(=O)NC3=O)cc2)nc2ccc(Oc3cccc(NC(=O)Nc4ccc(F)cc4)c3)cc21 (centres undefined) | 169 to 171 °C
COc1cccc(C23CCN(C)CC2Cc2c([nH]c(C(=O)NCc4ccccc4)c2C)C3)c1 (centres undefined) | 162 to 164 °C
Cc1nc(Nc2c([N+](=O)[O-])cc(C(F)(F)F)c(Cl)c2[N+](=O)[O-])c(Cl)cc1Cl | 128 to 130 °C
CCOC(=O)c1cnn2c1c(NCCCN(C)C)nc1ccccc12 | 72 to 74 °C
CCCCCCCCCCCC1Nc2ccccc2-c2c([N+](=O)[O-])cnn21 (centres undefined) | 92 to 93 °C
COC(=O)C1Cc2c(C)ccc(C)c2N1 (centres undefined) | 80 °C
CCCc1ccc(-n2nc(Cl)cc2-c2ccc(S(C)(=O)=O)cc2)cc1N | 152 to 154 °C
O=C(O)C1=Cc2cc(S(=O)(=O)NCc3ccccc3)cc(Cl)c2OC1C(F)(F)F (centres undefined) | 167 to 174 °C
CC(C)(C)N[C@@H]1Cc2cccc(O)c2C[C@H]1O (relative stereo) | 97 to 102 °C
COC(=O)C=Cc1ccc(OCc2nc(-c3ccc4ccccc4c3)oc2C)cc1 | 185 to 186 °C
COC(=O)N1C(C(=O)O)CSC1c1ccccc1 (centres undefined) | 129 to 130 °C
CC(C)OC(=O)c1ccc(OCC(=NO)c2ccc3c(c2)C(C)(C)CCC3(C)C)cc1O | 130 °C
COC(=O)c1ccc(OCC2CC(=O)N(c3ccc(OCCn4ccnc4)cc3)C2)cc1 (centres undefined) | 135 to 138 °C
Nc1cccc(-c2cnc(N)nc2)c1 | 171 to 172 °C
COc1cc2c(cc1OCc1ccccc1)CCN(Cc1cccc([N+](=O)[O-])c1)C2 | 109 to 110 °C
CC(C)c1nc2[nH]c(=O)ccc2c(-c2ccc(F)cc2)c1/C=C/C=O | 261 °C
Cc1cccc(C(N)c2ccc3nc(NC4CCN(CCO)CC4)n(Cc4nc(C)ccc4O)c3c2)c1 (centres undefined) | 137 °C
O=c1[nH]c2cc(F)c(O)c([N+](=O)[O-])c2[nH]c1=O | > 360 °C
Cc1nn(CCO)c(C)c1Sc1cc(Cl)cc(Cl)c1 | 118 to 120 °C
Cc1ccc(CC2(O)CCN(CC(=O)Nc3ccc(O[Si](C)(C)C(C)(C)C)cc3)CC2)cc1 | 136 to 138 °C
COc1ccc(C(CCC(=O)c2ccccc2)C(=O)c2ccc(OCc3ccccc3)cc2)cc1 (centres undefined) | 76 to 78 °C
CCOc1cc(C(=O)CCCC2CCCCC2)c(OCC)cc1C | 49 to 50 °C
COc1cc(CNC=O)ccc1O | 83.5 °C
N#CC(=O)c1cccc(Cl)c1 | 146 to 148 °C
CC(C)(C)c1cc(Oc2ccc(Br)cc2)cc(C(C)(C)C)c1 | 98 to 100 °C

Structure (SMILES) | melting point
COCCCc1cccc(C2(c3ccc(OC(F)F)cc3)N=C(N)N(C)C2=O)c1 (centres undefined) | 48 to 50 °C
Cc1nn(-c2ccccn2)c2nc3ccc(C(F)(F)F)cc3c(Cl)c12 | 206 °C
Fc1cccc(OC2CN(C(c3ccccc3)c3ccccc3)C2)c1 | 81 to 82 °C
CN(O)C(=O)NCCc1ccc2c(c1)OCCO2 | 94 to 95 °C
COC(=O)c1cnc(NC(C)C)nc1C | 118 to 119 °C
CS(=O)(=O)c1ccc(N)c([N+](=O)[O-])c1 | 195 to 198 °C
Cc1oncc1C(=O)N1CCC[C@H](c2nc(-c3ccc[nH]3)no2)C1 | 125 to 127 °C
COc1ccc(OC)c(C2OC(=O)c3c(OC)ccc(C)c32)c1 (centres undefined) | 121 to 123 °C
CS(=O)(=O)c1ccc(C2=C(c3ccc(-c4cscn4)cc3)C(=O)OC2)cc1 | 237 °C
Cc1ccc(C(=O)C2=C(O)C(=O)N(c3ccc(N(C)C)nn3)C2c2ccc(C(C)C)cc2)cc1 (centres undefined) | 281 °C
COc1ccc(Nc2nc(C)c(-c3nc4ccccc4c(=O)n3-c3ccc(Cl)cc3)s2)cc1 | > 275 °C
COc1ccc(CS[C@@H]2C[C@@H](C(=O)OCc3ccccc3)N(S(=O)(=O)c3ccc4ccccc4c3)C2)cc1 | 90 to 91 °C
CN(C)C1(c2ccccc2)CCC(O)(c2cc3ccccc3n2S(=O)(=O)c2ccccc2)CC1 (centres undefined) | 173 to 176 °C
Cc1cc(C(=O)O)c2cccc(OCc3ccccc3)c2n1 | 241 °C
CCOC(=O)C1=C(C)NC(=S)N(C(=O)OC)C1c1cccc([N+](=O)[O-])c1 (centres undefined) | 150 to 151 °C
O=C(O)CCCCCc1oc(-n2cnc3ccccc32)nc1-c1ccc(Cl)cc1 | 158 to 159 °C
O=C(c1cccs1)c1cnn2c(-c3cccc(NCC4CC=CCC4)c3)ccnc12 (centres undefined) | 78 to 81 °C
CCSc1cn(C)cc(-c2cccc(C(F)(F)F)c2)c1=S | 136 to 138 °C
O=C1Nc2ccccc2N(C(=O)CN2C(=O)c3ccccc3C2=O)C2CCCC12 (centres undefined) | 207 to 208 °C
CS(=O)(=O)Nc1cccc(OCc2c[nH]cn2)c1 | 178 to 180 °C
CCOC(=O)C1=C(C)NC(CSCC2CO2)=C(C(=O)OCC)C1c1cccc([N+](=O)[O-])c1 (centres undefined) | 107 to 109 °C
CCC(C(CC(=O)OC)c1ccc2c(c1)OCO2)[N+](=O)[O-] (centres undefined) | 185 to 189 °C
CSc1cc(C(C)(C)C)ccc1O | 160 °C
CCc1cc2[nH]c(=O)cc(Cl)c2c(CC)n1 | 172 to 174 °C
CCOC(=O)C1=C(C)NC(=S)N(C(=O)OCC)C1c1cccc(C#N)c1 (centres undefined) | 155 to 156 °C

Structure (SMILES) | melting point
CCCCCCCCCCCCCCCCCCS(=O)c1cc2ccccc2cc1O (centres undefined) | 107 to 108 °C
C1CCC(CC2CNCCNCCNCCNCCN2)CC1 (centres undefined) | 87 to 89 °C
Cc1cc(OC[C@@H]2CCC(=O)N2)cc(C)c1-c1cccc2c1OC[C@H]2Nc1ccc2c(c1)OC[C@H]2CC(=O)O | 161 °C
CCc1cccc2c(NC(=O)C[C@H]3O[C@H](c4cccc(OC)c4OC)c4cc(Cl)ccc4N(CC(C)(C)CO)C3=O)c(C(=O)O)oc12 | 188 to 189 °C
CC(=O)N1C(=O)C2(CC2)c2ccc(N3C(=O)C4=C(CCCC4)C3=O)cc21 | 237 to 238 °C
COc1ccc(OCc2cccc(OCc3ccc4ccccc4n3)c2)c(C(=O)O)c1 | 248 to 249 °C
COC(=O)Cc1ccc(C(C)=O)cc1 | 44 °C
COC(=O)/C=C/[C@H](O)[C@H](Cc1ccccc1)NC(=O)OC(C)(C)C | 108 to 109 °C
CCCCCCCOc1cc2c(cc1/C(C)=C/c1ccc(C(=O)O)cc1)C(C)(C)CCCS2(=O)=O | 153 to 154 °C
Cc1cccc2c1OC(c1ccccc1)([N+](=O)[O-])C2 (centres undefined) | 122 to 126 °C
CNC(=O)N(OC(=O)NC(C)(C)C)C(C)=O | 142 to 144 °C
O=C(COc1ccc(-c2cc3ccc(OCC(=O)c4ccc(Cl)cc4)cc3s2)cc1)c1ccc(Cl)cc1 | 210 °C
COC(=O)C(Cc1ccc(OCCN(C)c2nc3ccccc3o2)cc1)Sc1ccccc1 (centres undefined) | 78 to 79 °C
CCOC(=O)c1cc(OC)c(C)cc1N | 60 to 62 °C
CC(CO)(CO)C(=O)N1CCOCC1 | 95 to 97 °C
CCCCCCCCCCCCCC=C(C(=O)O)c1ccc2c(c1)C(C)(C)CCC2(C)C | 59 to 60 °C
NC(=O)c1sc2c(Cl)cccc2c1Cl | 225 to 229 °C
CC(=O)c1c[nH]c2cc(-c3ccncc3)ccc2c1=O | > 300 °C
OC1CN(C(=S)Nc2ccccc2)Cc2sccc21 (centres undefined) | 168 °C
CC(=O)CS(=O)(=O)NC1(c2ccc(OCc3ccc4ccccc4n3)cc2)CCCCCC1 | 174 to 176 °C
O=C(Nc1ccc(N2CCSCC2)c(F)c1)OCc1ccccc1 | 142 °C
CCCCC(CC)CNc1cccc(-c2ccnc3c(C(=O)c4cccs4)cnn23)c1 (centres undefined) | 134 to 138 °C
CC(C)N(C(=O)C(F)(F)F)c1cc2c(cc1C(=O)c1ccccc1)OCO2 | 100 to 102 °C
CCCCC(=O)c1ccc(-c2ccccc2)cc1 | 79 to 79.5 °C
CCCc1cc([N+](=O)[O-])cc(C=O)c1O | 69.5 to 70 °C

Structure (SMILES) | melting point
Cc1nc2cnccc2n1-c1ccc(CC(=O)O)cc1 | 226 to 230 °C
CCCCC1C2CCCC(C2=O)C2(O)CCCCC12 (centres undefined) | 140 to 141 °C
CCOC(=O)C1=C(C)Nc2ccnc(OC(C)C)c2C1c1ccccn1 (centres undefined) | 191 to 193 °C
CN(C(=S)c1ccccn1)c1cccc(F)c1 | 100 to 103 °C
CCOC(=O)Cn1c2cccccc-2c(CC)c1=O | 128 to 131 °C
COC(=O)c1ccc(C(=O)N2CCN(c3ncccc3[N+](=O)[O-])CC2)cc1 | 149 to 152 °C
Cn1cc(-c2cc(-c3cnc4c(c3)CCN4)ccn2)n(-c2ccc(C(C)(C)C#N)cc2)c1=O | 247 °C
CC(C)(C)NCC(O)COc1cccc2c1CNC(=O)N2 (centres undefined) | 204 to 205 °C
COC(=O)CN1C(=O)CN=C(c2ccccc2Cl)c2cc(Cl)ccc21 | 193 to 194 °C
COC(=O)c1cccc(N)c1S | 174 to 175 °C
Cc1cccc(C)c1N1CC(C)N(c2cccc(C(F)(F)F)c2)C1=N (centres undefined) | 160 to 166 °C
CCS(=O)(=O)Nc1nc(CCCN2CCN(C(c3ccccc3)c3ccccc3)CC2)cs1 | 162 to 164 °C
CC(Cc1c[nH]c2ccccc12)(NC(=O)OC1C2CC3CC(C2)CC1C3)C(=O)NC(CC(=O)O)Cc1ccccc1 (centres undefined) | 123 to 137 °C
Cc1noc([C@H]2CC[C@@](C)(NCC(=O)N3C[C@@H](F)C[C@H]3C#N)C2(C)C)n1 | 147 to 151 °C
COc1ccc(S(=O)(=O)N2C(=O)C(CC(=O)N3CCN(c4ccccn4)CC3)(c3ccccc3Cl)c3cc(C)ccc32)c(OC)c1 (centres undefined) | 239 °C
Cc1c(NC(=O)c2ccc(-c3ccc(F)cc3)cc2)ccc2cc(CN3CCC(c4ccccc4)CC3)cnc12 | 171 to 172 °C
c1ccc(C2NCCNCc3ccccc32)cc1 (centres undefined) | 125 °C
Cc1cccc2c(=O)c3cccc(-c4ccccc4)c3oc12 | 140 to 141 °C
CC(C)Oc1c(C(=O)O)n(C)c2ccc(OCc3ccccc3)cc12 | 136 °C
CCCCCCCCCCNC(=O)c1cc(NCCC(=O)O)c(CCC(=O)O)c(C(=O)NCCCCCCCCCC)c1 | 139 to 141 °C
CCOC(=O)c1c(C)nc2c(c1N)c1ccccc1n2Cc1ccc(OC)cc1 | 138 to 140 °C
O=C(NC(=O)c1cccs1)NC1CCN(Cc2ccc3ccccc3c2)CC1 | 217 to 219 °C
CC1C(=O)Oc2cc(N3CCCC3)ccc21 (centres undefined) | 101 to 103 °C
COc1ccccc1N=Nc1ncc[nH]1 | 152 to 153 °C

— a melting point compilation (Tetko et al.; mined from patent text by program, amines drawn as free bases though some values may be those of a salt)
